Earlier results on eight compounds are cited in patent US4181708A, “Rumen-stable pellets” (Eastman Kodak Company, priority 1978, dated 1980).

For the first data set the following is noted: at 25° C., water.
Regarding `NC(Cc1ccccc1)C(=O)O` (racemic) [DL - Phenylalanine], the Solubility was 3.0 g./100 g. water. `CC(C)C[C@H](N)C(=O)O` [L(-) - Lencine]: the Solubility is on record as 2.0 g./100 g. water.

Still in this data set, the particulars now being: saturated solution.
Consider `CC(N)C(=O)O` (racemic) [DL - Alanine], for which the “pH of saturated solution” value is reported as 6.2. As for `CSCCC(N)C(=O)O` (racemic) [DL - Methionine], the “pH of saturated solution” value is reported as 5.7.

For the compound `NC(Cc1ccccc1)C(=O)O` (racemic) [DL - Phenylalanine], the “pH of saturated solution” value is recorded as 5.6. In the case of `N=C(N)NCCC[C@H](N)C(=O)O` [L - Arginine], the “pH of saturated solution” value is listed as 11.8. Consider `NC(=O)C[C@H](N)C(=O)O` [L - Asparagine], for which the “pH of saturated solution” value was 4.7. Take `N[C@@H](CS)C(=O)O` [L(-) - Cysteine]: the “pH of saturated solution” value is 3.7.

For `N[C@@H](Cc1ccc(O)cc1)C(=O)O` [L(-) - Tyrosine], the “pH of saturated solution” value is 7.3.

Staying with this data set, now noted: water.
Take `NC(=O)C[C@H](N)C(=O)O` [L - Asparagine]: the Solubility is 3.1 g./100 g. water.

Take `N[C@@H](CS)C(=O)O` [L(-) - Cysteine]: the Solubility is 0.01 g./100 g. water.
